pEC50, pIC50: −log10 of the molar value. Bounds are passed on as bounds.

Series [1] in a line: Fold resistance, ratio of EC50 for antiviral activity against drug-resistant HIV-1 K103 N mutant infected in human MT4 cells to EC50 for antiviral activity against […] HIV-1 infected in human MT4 cells. It counts as functional.
A short description of series [2]: MRT(0 to t) in Sprague-Dawley rat at 10 mg/kg,po measured upto 24 hrs by LC-MS/MS analysis. It counts as ADME, organism-based. Conditions: in vivo.
A short description of series [3]: Oral bioavailability in Sprague-Dawley rat at 10 mg/kg measured upto 24 hrs by LC-MS/MS analysis. In kind it is ADME, organism-based. Conditions: in vivo.
Series [4] in a line: Half life in Sprague-Dawley rat at 10 mg/kg,po measured upto 24 hrs by LC-MS/MS analysis. It counts as ADME, organism-based. Conditions: in vivo.
Series [5] is described as follows: MRT (0 to infinity) in Sprague-Dawley rat at 1 mg/kg,iv measured upto 24 hrs by LC-MS/MS analysis. It counts as ADME, organism-based. Conditions: in vivo.
A short description of series [6]: Fold resistance, ratio of EC50 for antiviral activity against drug-resistant HIV-1 Y181C mutant infected in human MT4 cells to EC50 for antiviral activity against […] HIV-1 infected in human MT4 cells. It counts as functional.
Series [7] can be described thus: Apparent volume of distribution in Sprague-Dawley rat at 10 mg/kg,po measured upto 24 hrs by LC-MS/MS analysis. It counts as ADME, organism-based. Conditions: in vivo.
Series [8] concerns the target Human immunodeficiency virus type 1 reverse transcriptase (Human immunodeficiency virus 1, UniProt Q72547). Put plainly: Inhibition of recombinant wild-type p66/p51 HIV-1 reverse transcriptase incubated for 40 mins by picogreen dye-based spectrofluorometric analysis.
Series [9] addresses Cytochrome P450 3A4 (Homo sapiens, UniProt P08684). Briefly: Inhibition of CYP3A4M in human liver microsomes using midazolam as substrate incubated for 15 to 40 mins in presence of NADPH. In kind it is ADME, Microsome. For orientation: Microsomes from liver hold many membrane-bound enzymes, among them those of drug oxidation.
The nature of series [10]: AUC (0 to t) in Sprague-Dawley rat at 10 mg/kg,po measured upto 24 hrs by LC-MS/MS analysis. In kind it is ADME, organism-based. The arrangement: dose 10 mg/kg, time < 24 hrs, route po. Conditions: in vivo.
The nature of series [11]: Acute toxicity in healthy mouse assessed as heart damage at 1 g/Kg,IG monitored for 2 weeks by HE staining based assay. Conditions: in vivo, po, 1000 mg/kg, 336 h. It counts as tissue-based.
In series [12] the test system is Human immunodeficiency virus 1. Briefly: Antiviral activity against drug-resistant HIV-1 K103 N mutant infected in human MT4 cells assessed as reduction in virus-induced cytopathic effect incubated for 5 days by MTT assay. In kind it is functional, organism-based. Conditions: Human immunodeficiency virus 1, K103 N mutant, MT4, 120 h. A general note: Damage to the host cells serves as the signal in cytopathic effect assays.

In series [13] the test system is Human immunodeficiency virus 1. Put plainly: Antiviral activity against […] HIV-1 infected in human MT4 cells assessed as reduction in virus-induced cytopathic effect incubated for 5 days by MTT assay. Conditions: Human immunodeficiency virus 1, MT4, 120 h. It counts as functional, organism-based.
Series [14] is described as follows: Acute toxicity in mouse assessed as body weight change at 1 g/Kg,IG monitored for 2 weeks. Conditions: in vivo, po, 1000 mg/kg, 336 h.
Series [15] is described as follows: Acute toxicity in healthy mouse assessed as liver damage at 1 g/Kg,IG monitored for 2 weeks by HE staining based assay. Conditions: in vivo, po, 1000 mg/kg, 336 h. In kind it is tissue-based.
Series [16] in a line: Clearance in Sprague-Dawley rat at 10 mg/kg,po measured upto 24 hrs by LC-MS/MS analysis. In kind it is ADME, organism-based. Conditions: in vivo.
Series [17] deals with hERG (Homo sapiens, UniProt Q12809). Briefly: Inhibition of human ERG expressed in CHO cells at 40 uM at -80 mV holding potential by automated patch clamp method relative to control. It counts as toxicity, cell-based. Conditions: CHO cells that express hERG.
Sequence of hERG (Q12809 whole entry): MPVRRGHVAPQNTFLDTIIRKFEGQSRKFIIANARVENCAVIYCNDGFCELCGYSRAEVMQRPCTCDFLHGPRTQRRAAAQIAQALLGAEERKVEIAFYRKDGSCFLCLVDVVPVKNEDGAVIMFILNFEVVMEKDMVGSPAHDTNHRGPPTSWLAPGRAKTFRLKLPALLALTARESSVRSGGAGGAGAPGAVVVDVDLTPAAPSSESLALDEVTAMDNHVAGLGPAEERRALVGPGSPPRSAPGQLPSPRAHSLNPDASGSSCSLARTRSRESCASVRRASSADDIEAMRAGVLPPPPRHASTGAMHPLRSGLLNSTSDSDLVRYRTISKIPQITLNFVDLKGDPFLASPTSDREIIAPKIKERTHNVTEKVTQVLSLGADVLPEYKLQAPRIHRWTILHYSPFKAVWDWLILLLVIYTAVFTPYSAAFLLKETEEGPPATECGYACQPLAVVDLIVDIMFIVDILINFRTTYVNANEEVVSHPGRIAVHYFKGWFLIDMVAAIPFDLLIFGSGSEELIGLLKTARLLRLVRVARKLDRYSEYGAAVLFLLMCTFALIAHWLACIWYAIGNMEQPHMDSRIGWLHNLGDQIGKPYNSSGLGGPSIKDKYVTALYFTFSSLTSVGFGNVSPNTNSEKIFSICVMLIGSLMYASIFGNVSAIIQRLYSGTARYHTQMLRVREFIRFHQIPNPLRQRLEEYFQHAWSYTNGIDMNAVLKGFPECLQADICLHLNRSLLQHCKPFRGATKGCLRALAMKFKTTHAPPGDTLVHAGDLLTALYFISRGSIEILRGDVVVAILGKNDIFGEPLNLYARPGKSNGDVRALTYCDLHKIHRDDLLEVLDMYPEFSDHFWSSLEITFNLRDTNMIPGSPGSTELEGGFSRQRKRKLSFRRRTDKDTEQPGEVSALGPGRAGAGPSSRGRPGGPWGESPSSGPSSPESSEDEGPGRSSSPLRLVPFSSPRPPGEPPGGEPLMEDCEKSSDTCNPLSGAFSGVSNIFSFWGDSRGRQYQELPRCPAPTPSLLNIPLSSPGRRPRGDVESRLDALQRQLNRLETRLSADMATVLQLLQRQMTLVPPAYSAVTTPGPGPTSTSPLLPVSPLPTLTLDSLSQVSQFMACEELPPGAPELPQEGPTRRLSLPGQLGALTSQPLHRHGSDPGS

Sequence of Cytochrome P450 3A4 (P08684 whole entry): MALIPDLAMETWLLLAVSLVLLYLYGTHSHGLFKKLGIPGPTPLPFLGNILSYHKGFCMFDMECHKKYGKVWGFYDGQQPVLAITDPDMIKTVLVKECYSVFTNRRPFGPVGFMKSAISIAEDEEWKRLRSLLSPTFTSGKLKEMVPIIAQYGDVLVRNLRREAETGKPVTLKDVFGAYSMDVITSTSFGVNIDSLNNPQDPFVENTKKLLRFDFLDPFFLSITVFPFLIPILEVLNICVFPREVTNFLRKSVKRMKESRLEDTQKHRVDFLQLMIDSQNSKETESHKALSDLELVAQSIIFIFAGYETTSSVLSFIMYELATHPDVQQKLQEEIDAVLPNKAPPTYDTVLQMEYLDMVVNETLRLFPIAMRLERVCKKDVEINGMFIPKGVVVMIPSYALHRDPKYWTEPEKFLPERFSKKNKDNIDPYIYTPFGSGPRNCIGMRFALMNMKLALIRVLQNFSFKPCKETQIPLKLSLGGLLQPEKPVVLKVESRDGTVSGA

In general, MRT last refers to the average time that molecules of a dose stay in the body. One may read the half-life as the time in which the quantity being followed falls by half. A higher half-life goes with slow loss. A word on the MRT inf: it is the average time that molecules of a dose stay in the body. What is called pIC50 is the negative decadic logarithm of the IC50, by convention in mol/L. By AUC(0-t) is commonly meant the area under the concentration-time curve up to a stated or last time point. One may read the pEC50 as the negative decadic logarithm of the EC50, by convention in mol/L. What is called CL/F is the apparent clearance, not corrected for the fraction that reaches the circulation. For orientation: inhibition means the percentage by which the read-out fell short of the control. With `Cc1c(C(C#N)c2c(F)cccc2F)nc(SC(C)C)[nH]c1=O` (configuration not stated), the “Ratio EC50” value in series [1] was 163; in series [6], 36. This compound also had a mean residence time (MRT last) at 24 h in [2] of 6.2 h. The compound further returned a F in [3] of 164%. The half-life in [4] is 4.39 h. Besides, in [5], the mean residence time (MRT inf) is 2.41 h. In [7], the Vz worked out at 0.47537 L/kg. The pIC50 in [8] is 7.10; in series [9], less than 4.30. Besides, the AUC(0-t) at 24 h in [10] came out at 133 µg·h/mL. For the same compound, the Activity entry in series [11], in series [14] and in series [15] was “Non-Toxic” in each case. The pEC50 in [12] is 5.47; in series [13] it was 7.68. This compound had a CL/F in [16] of 1.24 mL/min/kg. In [17], this compound displayed an inhibition at 40 µM of 29.4%.

(Values after ChEMBL document CHEMBL5137044, “Expansion of the S-CN-DABO scaffold to exploit the impact on inhibitory activities against the non-nucleoside HIV-1 reverse transcriptase” (Eur J Med Chem, 2022).)
